This passage reports IC50 results from patent US10919885B2, “Compounds and uses thereof” (Yumanity Therapeutics, Inc., priority 2018, dated 2021).

The target of one assay is human SCD1 (Homo sapiens (Human), UniProt O00767). The assay can be described thus: Yeast growth assay, strain expressing human SCD1 as the sole desaturase (reduced growth as surrogate for SCD inhibition). The format is cell-based. The following applies: yeast with OLE1 deleted expressing human SCD1 from a plasmid; growth read as OD600 after 40 h at 30° C.; top drug concentration 33.3 μM. In outline:
(§1)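 Human SCD1 or SCD5 expressed from a plasmid in OLE1-deleted yeast as the sole desaturase. Cells washed free of Tween and fatty acids, grown with compound in SD-Ura glucose medium 40 h at 30 °C; growth measured as OD600, reduced growth taken as SCD inhibition.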

For a further assay, the target named is human SCD5 (Homo sapiens (Human), UniProt Q86SK9). Put plainly: Yeast growth assay, strain expressing human SCD5 as the sole desaturase (reduced growth as surrogate for SCD inhibition). In kind it is cell-based. The conditions noted are these: yeast with OLE1 deleted expressing human SCD5 from a plasmid; growth read as OD600 after 40 h at 30° C.; top drug concentration 33.3 μM. In outline: as §1
Sequence of human SCD5 (Q86SK9 whole entry): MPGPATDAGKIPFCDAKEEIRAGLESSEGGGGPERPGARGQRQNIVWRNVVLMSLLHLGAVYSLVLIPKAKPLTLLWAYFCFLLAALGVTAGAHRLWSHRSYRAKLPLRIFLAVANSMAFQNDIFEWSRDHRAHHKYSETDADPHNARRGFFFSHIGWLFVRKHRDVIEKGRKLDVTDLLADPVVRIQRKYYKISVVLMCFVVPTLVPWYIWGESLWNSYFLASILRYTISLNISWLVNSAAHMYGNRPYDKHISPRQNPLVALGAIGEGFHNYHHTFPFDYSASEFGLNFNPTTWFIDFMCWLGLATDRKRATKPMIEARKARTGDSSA

Molecules are shown by their SMILES. Some results are limits rather than exact numbers.

Sequence of human SCD1 (O00767 whole entry): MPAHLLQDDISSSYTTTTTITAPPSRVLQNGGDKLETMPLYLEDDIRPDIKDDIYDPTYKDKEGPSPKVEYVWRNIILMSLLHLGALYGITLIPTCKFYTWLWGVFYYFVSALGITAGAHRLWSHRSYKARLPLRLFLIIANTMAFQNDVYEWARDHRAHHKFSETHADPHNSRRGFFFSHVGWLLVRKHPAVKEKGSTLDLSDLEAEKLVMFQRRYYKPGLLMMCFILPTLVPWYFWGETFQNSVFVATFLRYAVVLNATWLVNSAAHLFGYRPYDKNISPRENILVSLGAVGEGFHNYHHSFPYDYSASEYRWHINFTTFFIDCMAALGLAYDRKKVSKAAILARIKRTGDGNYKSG

For `O=C(c1cc(-c2ccccc2)on1)N1CC2(CC(c3ccccc3)C2)C1` [Compound 227, (6-phenyl-2-azaspiro[3.3]heptan-2-yl)-(5-phenylisoxazol-3-yl)methanone], the figures for the IC50 on human SCD1 and against human SCD5 were more than 45 µM and 8.87 µM, respectively.
Take `O=C(c1cc(-c2ccncc2)on1)N1CC(c2ccccc2)C1` [Compound 229, (3-phenylazetidin-1-yl)(5-(pyridin-4-yl)isoxazol-3-yl)methanone, trifluoroacetic acid]: the half-inhibitory concentration (IC50) – broadly, the concentration that inhibits the measured activity by half – against human SCD1 stood at 0.66 µM; against human SCD5, 7.17 µM.
`CNC(=O)c1ccc(-c2cc(C(=O)N3CC(Cc4ccccc4)C3)no2)cc1` [Compound 230]: the half-inhibitory concentration (IC50) against human SCD1 and at human SCD5 was more than 45 µM in each case.
For `Cn1ncc2ccc(-c3cc(C(=O)N4CC(c5ccccc5)C4)no3)cc21` [Compound 232, (5-(1-methyl-1H-indazol-6-yl)isoxazol-3-yl)(3-phenylazetidin-1-yl)methanone], the IC50 is more than 45 µM against human SCD1 and 1.63 µM against human SCD5.
The corresponding values for `O=C(c1cc(-c2ccccn2)on1)N1CC(c2ccccc2)C1` [Compound 233, (3-phenylazetidin-1-yl)(5-(pyridin-2-yl)isoxazol-3-yl)methanone] are 2.61 µM and 3.12 µM.
For `O=C(c1cc(-c2cccnc2)on1)N1CC(c2ccccc2)C1` [Compound 234, (3-phenylazetidin-1-yl)(5-(pyridin-3-yl)isoxazol-3-yl)methanone, trifluoroacetic acid], in that order: 15.5 µM and 5.08 µM.
Regarding `Cn1cc2ccc(-c3cc(C(=O)N4CC(c5ccccc5)C4)no3)cc2n1` [Compound 235, (5-(2-methyl-2H-indazol-6-yl)isoxazol-3-yl)(3-phenylazetidin-1-yl)methanone], the concentration for half-maximal inhibition (IC50) against human SCD1 is more than 45 µM; at human SCD5, 5.16 µM.
As for `COc1ccc(-c2cc(C(=O)N3CC(c4cccc(F)c4)C3)no2)cc1OC` [Compound 236], the results for the half-maximal inhibitory concentration (IC50) against human SCD1 and against human SCD5 were 3.33 µM and 1.55 µM, respectively.
For `O=C(Nc1ccccc1)C1CN(C(=O)c2cc(-c3ccccc3)on2)C1` [Compound 237], in that order: more than 45 µM and more than 45 µM.
Consider `CC1(C(=O)Nc2ccccc2)CN(C(=O)c2cc(-c3ccccc3)on2)C1` [Compound 238], for which the half-maximal inhibitory concentration (IC50) against human SCD1 and at human SCD5 was more than 45 µM each time.
For `O=C(c1cc(-c2ccc3c(c2)OCO3)on1)N1CC(c2cccc(F)c2)C1` [Compound 239, (5-(benzo[d][1,3]dioxol-5-yl)isoxazol-3-yl)(3-(3-fluorophenyl)azetidin-1-yl)methanone], the IC50 at human SCD1 worked out at 0.866 µM; against human SCD5, 1.92 µM.
In the case of `O=C(NC1CN(C(=O)c2cc(-c3ccccc3)on2)C1)c1ccccc1` [Compound 240], the IC50 on human SCD1 and on human SCD5 was more than 45 µM each time.
As for `COc1ccc(-c2cc(C(=O)N3CC(c4ccccc4)C3)no2)nc1` [Compound 242, (5-(5-methoxypyridin-2-yl)isoxazol-3-yl)(3-phenylazetidin-1-yl)methanone], the IC50 stood at 0.264 µM on human SCD1 and 0.305 µM against human SCD5.
In the case of `O=C(c1cc(-c2ccc(F)cn2)on1)N1CC(c2ccccc2)C1` [Compound 243, (5-(5-fluoropyridin-2-yl)isoxazol-3-yl)(3-phenylazetidin-1-yl)methanone], the half-inhibitory concentration (IC50) was found to be 1.6 µM at human SCD1 and 1.5 µM against human SCD5.
As for `O=C(c1cc(-c2ccco2)on1)N1CC(F)C1` [Compound 244], the IC50 on human SCD1 and against human SCD5 was more than 45 µM in each case.
In the case of `O=C(c1cc(-c2ccco2)on1)N1CC2(CCCC2)C1` [Compound 245], the IC50 at human SCD1 and at human SCD5 was more than 45 µM each time.
Take `O=C(c1cc(-c2ccco2)on1)N1CC2(COC2)C1` [Compound 247]: the 50% inhibitory concentration (IC50) against human SCD1 and against human SCD5 was more than 45 µM in each case.
`CC(C)c1cc(C(=O)N2CC(c3ccccc3)C2)no1` [Compound 250]: the half-inhibitory concentration (IC50) against human SCD1 and against human SCD5 was more than 45 µM each time.
For the compound `O=C(c1noc2c1CCCC2)N1CC(c2ccccc2)C1` [Compound 252, 3-(3-phenylazetidine-1-carbonyl)-4,5,6,7-tetrahydro-1,2-benzoxazole], the figures for the half-inhibitory concentration (IC50) at human SCD1 and at human SCD5 were more than 45 µM and 7.5 µM, respectively.
For `O=C(c1noc2c1CCCC2)N1CC(Cc2ccccc2)C1` [Compound 253, 3-(3-benzylazetidine-1-carbonyl)-4,5,6,7-tetrahydro-1,2-benzoxazole], the IC50 at human SCD1 was more than 45 µM; at human SCD5 it was 13 µM.
`COc1ccc(-c2cc(C(=O)N3CC(c4ccccc4)C3)no2)nn1` [Compound 255, (5-(6-methoxypyridazin-3-yl)isoxazol-3-yl)(3-phenylazetidin-1-yl)methanone]: the IC50 was 23 µM against human SCD1 and 1.8 µM at human SCD5.
As for `O=C(c1cc(-c2ccncn2)on1)N1CC(c2ccccc2)C1` [Compound 257, (3-phenylazetidin-1-yl)(5-(pyrimidin-4-yl)isoxazol-3-yl)methanone], the IC50 on human SCD1 came out at 0.321 µM; against human SCD5 it was 3.14 µM.
Take `O=C(c1cc(-c2ccncn2)on1)N1CC(Cc2ccccc2)C1` [Compound 258, (3-benzylazetidin-1-yl)(5-(pyrimidin-4-yl)isoxazol-3-yl)methanone]: the concentration for half-maximal inhibition (IC50) against human SCD1 was 2.5 µM; on human SCD5, 1 µM.
For `O=C(c1cc(-c2cnccn2)on1)N1CC(c2ccccc2)C1` [Compound 259, (3-phenylazetidin-1-yl)(5-(pyrazin-2-yl)isoxazol-3-yl)methanone], in that order: more than 45 µM and 5 µM.
For the compound `O=C(c1cc(-c2ccc3c(c2)OCO3)on1)N1CCc2ccccc2C1` [Compound 260], the IC50 against human SCD1 and on human SCD5 was more than 45 µM throughout.
Regarding `O=C(c1cc(-c2ccc3c(c2)OCO3)on1)N1CCCc2ccccc21` [Compound 261], the concentration for half-maximal inhibition (IC50) against human SCD1 and at human SCD5 was more than 45 µM each time.
On to `O=C(c1cc(-c2ccc3c(c2)OCO3)on1)N1CCCc2c(F)cccc21` [Compound 263], for which the IC50 against human SCD1 and at human SCD5 was more than 45 µM in each case.
For `O=C(c1cc(-c2ccc3c(c2)OCO3)on1)N1CCn2ccnc2C1` [Compound 269], the IC50 at human SCD1 and at human SCD5 was more than 45 µM throughout.
Take `COc1cccc(N2CCN(C(=O)c3cc(-c4ccc5c(c4)OCO5)on3)CC2)c1` [Compound 271, (5-(benzo[d][1,3]dioxol-5-yl)isoxazol-3-yl)(4-(3-methoxyphenyl)piperazin-1-yl)methanone]: the values for the half-maximal inhibitory concentration (IC50) at human SCD1 and at human SCD5 were more than 45 µM and 4.71 µM, respectively.
Consider `O=C(c1cc(-c2ccc3c(c2)OCO3)on1)N1CCCC1c1ccc(F)cn1` (stereo not drawn) [Compound 272], for which the 50% inhibitory concentration (IC50) against human SCD1 and against human SCD5 was more than 45 µM in each case.
Consider `Cc1nn(C)c2cc(-c3cc(CN4C(=O)OCC4c4ccccc4)no3)ccc12` (stereo not drawn) [Compound 273], for which the IC50 on human SCD1 was more than 45 µM; against human SCD5, 39.2 µM.
For the compound `O=C(c1cc(-c2ccc3c(c2)OCO3)on1)N1CCC(c2ccccc2)CC1` [Compound 275, [5-(1,3-benzodioxol-5-yl)isoxazol-3-yl]-(4-phenyl-1-piperidyl)methanone], the concentration for half-maximal inhibition (IC50) is more than 45 µM on human SCD1 and 1.13 µM on human SCD5.
With `O=C(c1ccncc1)N1CCN(C(=O)c2cc(-c3ccc4c(c3)OCO4)on2)CC1` [Compound 276], the concentration for half-maximal inhibition (IC50) at human SCD1 and against human SCD5 was more than 45 µM in each case.
